Test system: K562 cells
Assay: MTS cell viability assay (K562 cell line)
Assay type: cell-based
Conditions: Homo sapiens, 48 hr
Experimental: K562 cells were the first human immortalised myelogenous leukemia line to be established. K562 cells are of the erythroleukemia type, and the line is derived from a CML patient. The cells are non-adherent and rounded, are positive for the bcr:abl fusion gene.
K562 cell line is maintained in RPMI1640 with 10% fetal Bovine Serum. 2500 cells/well of K562 cells were plated in 96 well tissue culture plate. Cells were incubated for 48 hours with serially diluted compound (final concentration from 20 μM-0.002 μM) for 48 hr. MTS (3-(4,5-dimethylthiazol-2-yl)-5-(3-carboxymethoxyphenyl)-2-(4-sulfophenyl)-2H-tetrazolium), obtained from Promega was added to the wells and plates were incubated at […] in 5% CO2 for 4 hrs. The MTS compound is bio-reduced by cells into a colored formazan product that is soluble in tissue culture medium. The quantity of formazan product as measured by the amount of 490 nm absorbance is directly proportional to the number of living cells in culture. The absorbance was read at 490 nm (Spectramax microplate reader). The Percentage inhibition was calculated and plotted against the concentration of inhibitor and data was fit to Non Linear Regression curve fit (sigmoidal dose response curve with variable slope-four parameters) using Graph pad prism 5.

| Structure (SMILES) | inhibition at 0.2 µM | inhibition at 2 µM | inhibition at 20 µM |
| --- | --- | --- | --- |
| Cc1ccc(NC(=O)c2ccc(CN3CC[N+](C)(COC(=O)N[C@H](C)c4ccccc4)CC3)cc2)cc1Nc1nccc(-c2cccnc2)n1 [Compound 1011, (R)-1-methyl-4-(4-((4-methyl-3-((4-(pyridin-3-yl)pyrimidin-2-yl)amino)phenyl)carbamoyl)benzyl)-1-((((1-phenylethyl)carbamoyl)oxy)methyl)piperazin-1-ium iodide] | 45% | 63% | 70% |
| CCC(C)(C)OC(=O)OC[N+]1(C)CCN(Cc2ccc(C(=O)Nc3ccc(C)c(Nc4nccc(-c5cccnc5)n4)c3)cc2)CC1 [Compound 1028, 1-methyl-4-(4-(4-methyl-3-(4-(pyridin-3-yl)pyrimidin-2-ylamino)phenylcarbamoyl)benzyl)-1-((tert-pentyloxycarbonyloxy)methyl)piperazin-1-ium iodide] | 40% | 63% | 76% |
| Cc1ccc(NC(=O)c2ccc(CN3CCN(C)CC3)cc2)cc1Nc1nccc(-c2cccnc2)n1 [imatinib, 4-[(4-methylpiperazin-1-yl)methyl]-N-(4-methyl-3-{[4-(pyridin-3-yl)pyrimidin-2-yl]amino}phenyl)benzamide, reference compound] | 48% | 64% | 67% |

Source: US9487500B2, “Compounds and compositions thereof” (Inhibikase Therapeutics, Inc., priority 2012, dated 2016)
